Measured values as given in PubChem BioAssay (NCI).
Values joined by “and” are separate entries in the source; they are usually repeats but may differ in a detail not shown here. Identical values can stand only once.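 48-hour exposure; five concentrations; linearly interpolated endpoints. GI50 = concentration required for 50% inhibition of growth. TGI is the concentration that stops growth completely.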 Where a SMILES comes first, the peptide text is derived from it. The star is where a group is joined. Cbz = O=C(OCc1ccccc1)*; Boc = CC(C)(C)OC(=O)*; OSu = O=C1CCC(=O)N1O*; Bn = c1ccc(C*)cc1

Legend:
Assay in all cases: growth of human tumour cells (NCI), 48 h
ACHN renal = test system: ACHN renal
COLO 205 colon = test system: COLO 205 colon
HCT-15 colon = test system: HCT-15 colon
HOP-62 NSCLC = test system: HOP-62 NSCLC
MCF7 breast = test system: MCF7 breast
MOLT-4 leukemia = test system: MOLT-4 leukemia
NCI/ADR-RES ovarian = test system: NCI/ADR-RES ovarian
SF-295 CNS = test system: SF-295 CNS
SK-MEL-28 melanoma = test system: SK-MEL-28 melanoma
SNB-19 CNS = test system: SNB-19 CNS
SNB-75 CNS = test system: SNB-75 CNS
SW-620 colon = test system: SW-620 colon
UACC-257 melanoma = test system: UACC-257 melanoma
UO-31 renal = test system: UO-31 renal
NCI-H522 lung = test system: NCI-H522 lung

Compound | TGI (ACHN renal) | TGI (COLO 205 colon) [µM] | TGI (HCT-15 colon) [µM] | TGI (HOP-62 NSCLC) | TGI (MCF7 breast) [µM] | TGI (MOLT-4 leukemia) [µM] | TGI (NCI/ADR-RES ovarian) | TGI (SF-295 CNS) | TGI (SK-MEL-28 melanoma) | TGI (SNB-19 CNS) | TGI (SNB-75 CNS) [µM] | TGI (SW-620 colon) | TGI (UACC-257 melanoma) | TGI (UO-31 renal) [µM] | GI50 (MOLT-4 leukemia) [µM] | TGI (NCI-H522 lung) [µM]
COc1cccc(CCCNC(=O)Cc2ccccc2CO)c1 | > 100 µM | > 100 | > 100 | > 100 µM | > 100 | > 100 | > 100 µM | > 100 µM | > 100 µM | > 100 µM | > 100 | > 100 µM | > 100 µM | > 100 |  | 
CCC(=C/[C@H](C)C/C=C/C(C)=C/[C@@H](C)C(=O)[C@@H](C)[C@H](O)[C@@H](C)CC)/C=C/[C@H]1CC=CC(=O)O1 | 1.89 µM and 10.9 µM | 0.0428 | 1.78 | 2.05 µM and 13 µM | 0.0033 |  | 1.65 µM and 0.39 µM | 1.48 µM and 13.8 µM | 2.81 µM and 15.1 µM | 2.11 µM and 14 µM | < 0.0012 | 2.09 µM and 12.1 µM | 2.22 µM and 18 µM |  | < 0.0012 | < 0.0012
CSc1nc[nH]c1C(N)=S | > 100 µM | > 100 |  | > 100 µM | > 100 | > 100 | > 100 µM | > 100 µM | > 100 µM | > 100 µM | > 100 | > 100 µM | > 100 µM | > 100 |  | > 100
C/C(Nc1ccc(Cl)cc1)=C1/CCOC1=O | > 100 µM |  | > 100 | > 100 µM | > 100 | > 76.5 | > 100 µM | > 100 µM | > 100 µM | > 100 µM | > 100 | > 100 µM | > 100 µM | > 100 |  | > 100
COc1ccc(/C=N/NC(=S)Nc2cc(C)ccc2OC)cc1 | > 100 µM | 32.7 | > 100 | > 100 µM | > 100 | 29.2 | > 100 µM | > 100 µM | > 100 µM | > 100 µM | > 100 | > 100 µM |  | > 100 |  | 55.9
CC(C)(C)OC(=O)NC(Cc1ccc(OCc2ccccc2)cc1)C(=O)NC(CCCCNC(=O)OCc1ccccc1)C(=O)NC(CCCCNC(=O)OCc1ccccc1)C(=O)ON1C(=O)CCC1=O (stereo not drawn) (Boc-Tyr(Bn)-Lys(Cbz)-Lys(Cbz)-OSu; configuration not given here) | > 100 µM | > 100 | > 100 | > 100 µM | 39.3 | > 100 | > 100 µM | 72.1 µM | > 100 µM | 30.7 µM | > 100 |  | > 100 µM | > 100 |  | 39.7
COC(=O)C(=O)C(C(=O)C(=O)Nc1ccc(C)c(C)c1)c1nc2ccc([N+](=O)[O-])cc2[nH]c1=O (stereo not drawn) | > 100 µM |  | > 100 | > 100 µM | > 100 | > 100 | > 100 µM | > 100 µM | > 100 µM | > 100 µM | > 100 | > 100 µM | > 100 µM | > 100 |  | > 100
CN(/N=C\c1ccc2ccccc2c1)C1=NCCCN1 | 35.9 µM | 25.3 | 74.4 | 27.4 µM | 26.4 | 8.93 | 74.4 µM | 26.8 µM | 29.8 µM |  | 91.2 | 27.2 µM | 23.6 µM | 25.2 |  | 30.3
Cc1nc(Cc2n[nH]c(C)n2)n[nH]1 | > 100 µM | > 100 | > 100 | > 100 µM | > 100 | > 100 | > 100 µM | > 100 µM |  | > 100 µM | > 100 | > 100 µM | > 100 µM | > 100 |  | > 100
CC(C)(CN1CCCCC1)C(=O)CC(SCCS(=O)(=O)O)c1ccc(Cl)cc1 (stereo not drawn) | 17.1 µM | 8.94 | 6.66 | 25 µM | 11.8 | 6.63 | 34 µM | 15.8 µM |  | 28.9 µM | 15.1 | 9.07 µM | 20.5 µM | 15.1 |  | 6.29
C[n+]1c2ccccc2c(C(=O)Nc2ccc(S(=O)(=O)Nc3ncccn3)cc2)c2ccccc21 | > 100 µM | > 100 | > 100 | > 100 µM | > 100 | > 100 | > 100 µM | > 100 µM | > 100 µM | > 100 µM | > 100 | > 100 µM | > 100 µM | > 100 |  | 
CC(=O)O[C@H]1C(=O)[C@@]2(C)[C@H]([C@H](OC(=O)c3ccco3)[C@]3(O)C[C@H](OC(=O)[C@H](O)[C@@H](NC(=O)c4ccccc4)c4ccccc4)C(C)=C1C3(C)C)[C@]1(OC(C)=O)CO[C@@H]1C[C@@H]2O | > 25 µM | > 5.82 | > 25 | > 25 µM | > 25 | > 25 | > 25 µM | > 19.7 µM | > 25 µM | > 25 µM | 3.87 | > 25 µM | > 25 µM | > 25 |  | 
C[n+]1c(-c2ccc(/C=N/NC(=O)C(=O)N/N=C/c3ccc(-c4cn5ccccc5[n+]4C)cc3)cc2)cn2ccccc21 | > 100 µM | > 100 | > 100 | > 100 µM | > 100 | > 100 | > 100 µM |  |  | > 100 µM | > 100 | > 100 µM | > 100 µM | > 100 |  | > 100
COc1cccc(N=NN2CCCC2)c1 | > 100 µM | > 100 | > 100 | > 100 µM | > 100 | > 100 | > 100 µM | > 100 µM |  | > 100 µM | > 100 | > 100 µM | > 100 µM | > 100 |  | > 100
Clc1cc2ncn(C3CCCCO3)c2cc1Cl (stereo not drawn) |  | > 100 | > 100 | > 100 µM | > 100 | > 100 | > 100 µM | > 100 µM | > 100 µM | > 100 µM | 53.9 | > 100 µM |  | 49.8 |  | 59.2
